Test results as given in patent US20240041042A1, “1-(PYRIDYL)-5-AZINYLPYRAZOLE DERIVATIVES, AND THEIR USE FOR CONTROL OF UNDESIRED PLANT GROWTH” (Bayer Aktiengesellschaft, priority 2020, published 2024).

How the values were obtained:
Type in all cases: in vivo
Setaria viridis (SETVI) = assay: Post-emergence herbicidal action against SETVI
Summary of the method: (§1)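 Values are percent visual activity (0% like control, 100% plants dead) after about 3 weeks in the greenhouse. Treatment: post-emergence spray at one-leaf stage, 600 l/ha spray volume, 0.5% additive, doses 320 g/ha or lower.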

[1] = test system: Polygonum convolvulus (POLCO); assay: Pre-emergence herbicidal action against POLCO
Summary of the method: (§2)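 Greenhouse pot trial: seeds sown, soil-covered, sprayed before emergence with compound in water (0.5% additive; 600 l/ha; ≤320 g/ha). Scoring visual, ~3 weeks, 0–100% scale vs untreated.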

[2] = test system: Alopecurus myosuroides (ALOMY); assay: Pre-emergence herbicidal action against ALOMY; settings: scored visually after about 3 weeks, 100% = plants have died
Summary of the method: as §2

[3] = test system: Pharbitis purpurea (PHBPU); assay: Post-emergence herbicidal action against PHBPU
Summary of the method: as §1

[4] = test system: Amaranthus retroflexus (AMARE); assay: Pre-emergence herbicidal action against AMARE; settings: visual scoring after about 3 weeks vs untreated controls
Summary of the method: as §2

[5] = test system: Alopecurus myosuroides (ALOMY); assay: Post-emergence herbicidal action against ALOMY; settings: visual rating about 3 weeks after treatment vs untreated controls (100% = plants have died, 0% = like control plants)
Summary of the method: as §1

Avena fatua (AVEFA) [6] = assay: Pre-emergence herbicidal action against AVEFA; settings: visual scoring after about 3 weeks vs untreated controls
Summary of the method: as §2

[7] = test system: Matricaria inodora (MATIN); assay: Pre-emergence herbicidal action against MATIN
Summary of the method: as §2

[8] = test system: Echinochloa crus-galli (ECHCG); assay: Post-emergence herbicidal action against ECHCG
Summary of the method: as §1

Avena fatua (AVEFA) [9] = assay: Post-emergence herbicidal action against AVEFA; settings: visual rating about 3 weeks after treatment
Summary of the method: as §1

Compound | Post-emergence action against SETVI in % (Setaria viridis (SETVI); dosage 80 g/ha) | Post-emergence action against SETVI in % (Setaria viridis (SETVI); dosage 320 g/ha) | Pre-emergence action against POLCO in % ([1]; dosage 80 g/ha) | Pre-emergence action against POLCO in % ([1]; dosage 320 g/ha) | Pre-emergence action against ALOMY ([2]; 80 g/ha) | Pre-emergence action against ALOMY ([2]; 320 g/ha) | Post-emergence action against PHBPU in % ([3]; dosage 320 g/ha) | Pre-emergence action against AMARE in % ([4]; 80 g/ha) | Pre-emergence action against AMARE in % ([4]; 320 g/ha) | Post-emergence action against ALOMY in % ([5]; 80 g/ha) | Post-emergence action against ALOMY in % ([5]; 320 g/ha) | Pre-emergence action against AVEFA in % (Avena fatua (AVEFA) [6]; 320 g/ha) | Pre-emergence action against MATIN in % ([7]; dosage 320 g/ha) | Post-emergence action against ECHCG in % ([8]; dosage 320 g/ha) | Post-emergence action against AVEFA in % (Avena fatua (AVEFA) [9]; 80 g/ha) | Post-emergence action against AVEFA in % (Avena fatua (AVEFA) [9]; 320 g/ha) | Pre-emergence action against AVEFA in % (Avena fatua (AVEFA) [6]; 80 g/ha) | Pre-emergence action against MATIN in % ([7]; dosage 80 g/ha) | Post-emergence action against ECHCG in % ([8]; dosage 80 g/ha) | Post-emergence action against PHBPU in % ([3]; dosage 80 g/ha)
COC(=O)[C@@H](C)Oc1nn(-c2ncccc2F)c(-c2ccc(F)nc2)c1Br [Example I-05, Methyl (2R)-2-{[4-bromo-1-(3-fluoropyridin-2-yl)-5-(6-fluoropyridin-3-yl)-1H-pyrazol-3-yl]oxy}propanoate] | 80% | 90% | 90% | 90% | 90% | 100% | 90% | 90% | 100% | 90% | 100% | 90% | 90% | 90% | 90% | 90% |  |  |  | 
C[C@@H](Oc1nn(-c2nc(F)ccc2F)c(-c2cncc(F)c2)c1C1CC1)C(=O)O [Example I-180] | 80% | 90% | 90% | 100% | 90% | 100% |  | 100% | 100% | 90% | 90% | 90% | 90% | 90% | 80% | 90% | 90% | 90% | 80% | 
CCOC(=O)COc1nn(-c2ncccc2F)c(-c2cncc(F)c2)c1C1CC1 [Example I-174] |  |  | 90% | 100% | 90% | 100% | 90% | 100% | 100% | 90% | 90% | 90% | 90% | 80% | 80% | 90% |  | 90% | 80% | 80%
COC(=O)C(C)NC(=O)[C@@H](C)Oc1nn(-c2ccccn2)c(-c2cncc(F)c2)c1Br (stereo partly drawn) [Example I-190] | 80% | 80% | 90% | 90% | 80% | 90% |  | 90% | 100% | 80% | 100% | 90% | 90% | 80% |  | 80% |  | 90% | 80% | 
C[C@@H](Oc1nn(-c2ncccc2F)c(-c2ccc(F)nc2)c1Br)C(=O)O [Example I-18] | 80% | 80% | 100% | 100% | 100% | 100% |  | 100% | 100% | 90% | 100% | 100% | 100% | 80% |  | 80% | 90% | 100% | 80% | 
